Laboratory results taken from the supplement of paper PMC10307832.

compound: Cc1ccc(Nc2nccc(N(C)c3ccc4c(C)n(C)nc4c3)n2)cc1S(N)(=O)=O [Pazopanib] + Cc1cc(Nc2cc(N3CCN(C)CC3)nc(Sc3ccc(NC(=O)C4CC4)cc3)n2)n[nH]1 [Tozasertib] (partner 0.1 µM); experiment: relative viability (nuclei count vs DMSO), 5 days (fraction); higher = more cells survive; settings: first compound 0.01 µM
How it was run: (§1)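 Lung cancer cell lines in 1536-well plates were dosed by pin tool the day after seeding, either with one drug alone or with a fixed anchor-drug dose plus five library-drug doses (not always all listed) in √10 steps. After 5 days, cells were fixed and their nuclei stained in one step (final 0.05% Triton X-100, 1% formaldehyde, 1 ug/ml Hoechst), then counted on 4× images. Relative viability is the nuclei count in treated wells divided by that in vehicle wells. Values are medians of duplicate plates.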

Cell Line | relative viability
NCI-H460 | 0.564
NCI-H727 | 0.599
NCI-H1734 | 0.262
NCI-H520 | 0.458
NCI-H2405 | 0.77
SW 1573 | 0.193
201T | 0.961
NCI-H1915 | 0.455
HCC-827 | 0.436
LXF-289 | 0.223
NCI-H23 | 0.373
NCI-H650 | 0.688
CAL-12T | 0.247
NCI-H1651 | 0.708
NCI-H2228 | 0.265
NCI-H1355 | 0.582

Cell Line | relative viability
NCI-H322M | 0.536
NCI-H1437 | 0.414
NCI-H1755 | 0.584
NCI-H2023 | 0.467
HCC-15 | 0.435
PC-3 [JPC-3] | 0.947
EKVX | 0.355
LC-2-ad | 0.469
NCI-H2170 | 0.772
NCI-H1975 | 0.665
SK-LU-1 | 0.332
ABC-1 | 0.182
SK-MES-1 | 0.934
NCI-H661 | 0.343
RERF-LC-KJ | 0.557

same assay, conditions: first compound 0.03162 µM

Cell Line | relative viability
NCI-H460 | 0.503
NCI-H727 | 0.543
NCI-H1734 | 0.242
NCI-H520 | 0.416
NCI-H2405 | 0.777
SW 1573 | 0.216
NCI-H1793 | 0.347
201T | 1
NCI-H1915 | 0.422
HCC-827 | 0.44
LXF-289 | 0.213
NCI-H23 | 0.341
NCI-H650 | 0.826
CAL-12T | 0.327
NCI-H1651 | 0.603
EPLC-272H | 0.352
NCI-H2228 | 0.271

Cell Line | relative viability
NCI-H1355 | 0.579
NCI-H322M | 0.518
NCI-H1437 | 0.42
NCI-H1755 | 0.614
NCI-H2023 | 0.318
HCC-15 | 0.502
NCI-H1944 | 0.234
PC-3 [JPC-3] | 0.918
EKVX | 0.383
LC-2-ad | 0.444
NCI-H2170 | 0.724
NCI-H1975 | 0.693
SK-LU-1 | 0.361
ABC-1 | 0.174
SK-MES-1 | 0.891
NCI-H661 | 0.355
RERF-LC-KJ | 0.522

same assay, conditions: first compound 0.1 µM

Cell Line | relative viability
NCI-H460 | 0.523
NCI-H727 | 0.622
NCI-H1734 | 0.28
NCI-H520 | 0.452
NCI-H2405 | 0.79
SW 1573 | 0.218
NCI-H1793 | 0.275
201T | 0.961
NCI-H1915 | 0.468
HCC-827 | 0.42
LXF-289 | 0.189
NCI-H23 | 0.359
NCI-H650 | 0.691
CAL-12T | 0.312
NCI-H1651 | 0.733
EPLC-272H | 0.167
NCI-H2228 | 0.265

Cell Line | relative viability
NCI-H1355 | 0.513
NCI-H322M | 0.547
NCI-H1437 | 0.408
NCI-H1755 | 0.561
NCI-H2023 | 0.38
HCC-15 | 0.411
NCI-H1944 | 0.258
PC-3 [JPC-3] | 0.916
EKVX | 0.435
LC-2-ad | 0.516
NCI-H2170 | 0.73
NCI-H1975 | 0.854
SK-LU-1 | 0.334
SK-MES-1 | 0.916
NCI-H661 | 0.349
RERF-LC-KJ | 0.507

same assay, conditions: first compound 0.3162 µM

Cell Line | relative viability
NCI-H460 | 0.494
NCI-H727 | 0.631
NCI-H1734 | 0.261
NCI-H520 | 0.438
NCI-H2405 | 0.75
SW 1573 | 0.153
NCI-H1793 | 0.367
201T | 0.908
NCI-H1915 | 0.407
HCC-827 | 0.414
LXF-289 | 0.189
NCI-H23 | 0.458
NCI-H650 | 0.804
CAL-12T | 0.297
NCI-H1651 | 0.725
EPLC-272H | 0.21
NCI-H2228 | 0.26

Cell Line | relative viability
NCI-H1355 | 0.55
NCI-H322M | 0.448
NCI-H1437 | 0.412
NCI-H1755 | 0.557
NCI-H2023 | 0.331
HCC-15 | 0.394
NCI-H1944 | 0.252
PC-3 [JPC-3] | 0.915
EKVX | 0.422
LC-2-ad | 0.467
NCI-H2170 | 0.67
NCI-H1975 | 0.742
SK-LU-1 | 0.28
ABC-1 | 0.151
SK-MES-1 | 0.905
NCI-H661 | 0.347
RERF-LC-KJ | 0.432

same assay, conditions: first compound 1 µM

Cell Line | relative viability
NCI-H460 | 0.393
NCI-H727 | 0.704
NCI-H1734 | 0.234
NCI-H520 | 0.386
NCI-H2405 | 0.76
SW 1573 | 0.176
NCI-H1793 | 0.374
201T | 0.926
NCI-H1915 | 0.399
HCC-827 | 0.433
LXF-289 | 0.175
NCI-H23 | 0.392
NCI-H650 | 0.655
CAL-12T | 0.294
NCI-H1651 | 0.685
EPLC-272H | 0.241
NCI-H2228 | 0.302

Cell Line | relative viability
NCI-H1355 | 0.553
NCI-H322M | 0.476
NCI-H1437 | 0.375
NCI-H1755 | 0.567
NCI-H2023 | 0.242
HCC-15 | 0.37
NCI-H1944 | 0.257
PC-3 [JPC-3] | 0.756
EKVX | 0.448
LC-2-ad | 0.471
NCI-H2170 | 0.674
NCI-H1975 | 0.581
SK-LU-1 | 0.318
ABC-1 | 0.19
SK-MES-1 | 0.786
NCI-H661 | 0.344
RERF-LC-KJ | 0.331

compound: Cc1ccc(C(=O)Nc2ccc(CN3CCN(C)CC3)c(C(F)(F)F)c2)cc1C#Cc1cnc2cccnn12 [Ponatinib] + CCNC(=O)c1noc(-c2cc(C(C)C)c(O)cc2O)c1-c1ccc(CN2CCOCC2)cc1 [Luminespib] (partner 0.01 µM); experiment: as above; settings: first compound 0.002 µM
How it was run: as §1

Cell Line | relative viability
NCI-H460 | 0.0243
NCI-H727 | 0.321
NCI-H1734 | 0.195
NCI-H520 | 0.207
NCI-H2405 | 0.664
SW 1573 | 0.266
NCI-H1793 | 0.479
201T | 1.1
NCI-H1915 | 0.754
HCC-827 | 0.476
LXF-289 | 0.598
NCI-H650 | 0.807
CAL-12T | 0.37
NCI-H1651 | 0.986
EPLC-272H | 0.323
NCI-H2228 | 0.134
NCI-H1355 | 0.688

Cell Line | relative viability
NCI-H322M | 1
NCI-H1437 | 1.18
NCI-H1755 | 0.249
NCI-H2023 | 0.749
HCC-15 | 0.306
NCI-H1944 | 0.666
PC-3 [JPC-3] | 0.649
EKVX | 0.941
LC-2-ad | 0.968
NCI-H2170 | 0.671
NCI-H1975 | 0.248
SK-LU-1 | 0.196
ABC-1 | 0.558
SK-MES-1 | 0.761
NCI-H661 | 0.916
RERF-LC-KJ | 1.17

same assay, conditions: first compound 0.006325 µM

Cell Line | relative viability
NCI-H460 | 0.0378
NCI-H727 | 0.444
NCI-H1734 | 0.181
NCI-H520 | 0.209
NCI-H2405 | 0.833
SW 1573 | 0.321
NCI-H1793 | 0.212
201T | 1.07
NCI-H1915 | 0.769
HCC-827 | 0.914
LXF-289 | 0.661
NCI-H23 | 0.22
NCI-H650 | 0.783
CAL-12T | 0.505
NCI-H1651 | 0.864
EPLC-272H | 0.255
NCI-H2228 | 0.178

Cell Line | relative viability
NCI-H1355 | 0.667
NCI-H322M | 1
NCI-H1437 | 1.09
NCI-H1755 | 0.696
NCI-H2023 | 0.749
HCC-15 | 0.22
NCI-H1944 | 0.684
PC-3 [JPC-3] | 0.697
EKVX | 0.959
LC-2-ad | 0.93
NCI-H2170 | 0.697
NCI-H1975 | 0.24
SK-LU-1 | 0.213
ABC-1 | 0.42
SK-MES-1 | 0.89
NCI-H661 | 0.903
RERF-LC-KJ | 1.32

same assay, conditions: first compound 0.06325 µM

Cell Line | relative viability
NCI-H460 | 0.0319
NCI-H727 | 0.516
NCI-H1734 | 0.186
NCI-H520 | 0.19
NCI-H2405 | 0.941
SW 1573 | 0.25
NCI-H1793 | 0.147
201T | 1.08
NCI-H1915 | 0.805
HCC-827 | 0.446
LXF-289 | 0.774
NCI-H23 | 0.211
NCI-H650 | 0.958
CAL-12T | 0.436
NCI-H1651 | 0.915
EPLC-272H | 0.521
NCI-H2228 | 0.109

Cell Line | relative viability
NCI-H1355 | 0.874
NCI-H322M | 0.843
NCI-H1437 | 1.25
NCI-H1755 | 0.561
NCI-H2023 | 0.748
HCC-15 | 0.661
NCI-H1944 | 0.833
PC-3 [JPC-3] | 0.811
EKVX | 0.954
LC-2-ad | 1.17
NCI-H2170 | 0.665
NCI-H1975 | 0.289
SK-LU-1 | 0.2
ABC-1 | 0.745
SK-MES-1 | 1.01
NCI-H661 | 0.898
RERF-LC-KJ | 1.47

same assay, conditions: first compound 0.2 µM

Cell Line | relative viability
NCI-H460 | 0.0324
NCI-H727 | 0.261
NCI-H1734 | 0.173
NCI-H520 | 0.223
NCI-H2405 | 0.64
SW 1573 | 0.259
NCI-H1793 | 0.184
201T | 0.966
NCI-H1915 | 0.672
HCC-827 | 0.589
LXF-289 | 0.641
NCI-H23 | 0.196
NCI-H650 | 0.775
CAL-12T | 0.447
NCI-H1651 | 1.05
EPLC-272H | 0.199
NCI-H2228 | 0.129
NCI-H1355 | 0.709
NCI-H322M | 0.716
